Assay results as given in PMC8304783, “Antiadhesive Properties of Imidazolium Ionic Liquids Based on (−)-Menthol Against Candida spp” (International Journal of Molecular Sciences, 2021).
Converted amounts (≈) assume the structure as drawn.

Tests used:
Format in all cases: cell-based
[1] = tested on: C. albicans SC5314; assay: Minimal inhibitory and fungicidal concentrations (broth microdilution, CLSI M27-A3 modified); details: Candida albicans, 28 °C
Procedure: (§1) Experiments were performed according to the Clinical and Laboratory Standards Institute (2008), 3rd ed. M27-A3 [51], with modifications described previously. Briefly, MICs were determined by serially diluting ILs in YPD medium in sterile 96-well plates (Sarstedt) and inoculating with fungal suspensions (final OD600 per well = 0.01). After incubation (48 h; 28 °C), the OD600 was measured (ASYS UVM 340 Biogenet). […] Each well was then replated on YPD agar and incubated for 5 days at 28 °C.

[2] = tested on: C. glabrata ATCC90030; assay: as above; details: Nakaseomyces glabratus, 28 °C
Procedure: as §1

[3] = tested on: C. krusei ATCC6258; assay: as above; details: Pichia kudriavzevii, 28 °C
Procedure: as §1

[4] = tested on: C. parapsilosis CBS10947; assay: as above; details: Lodderomyces parapsilosis, 28 °C
Procedure: as §1

[5] = tested on: C. albicans; assay: Detachment of adherent cells from polystyrene (crystal violet); details: C. albicans on polystyrene, 2 h treatment; highest concentration (4 × MIC)
Procedure: (§2) Thus, for the evaluation of ILs on fungal adhesion, higher concentrations were used, corresponding to 1, 2 and 4 times the MIC90 values (Figure 1).
(§3) Figure 1 Detachment of adherent Candida spp. cells after 2 h incubation on polystyrene surfaces by ionic liquids (ILs) (A) or amphotericin B (AMB) (B) (means ± SD; n = 3). Results are presented as percentage of adherent cells relative to untreated controls (100% adhesion). Statistical analysis of detachment at each concentration was performed towards corresponding control experiments (fungi untreated by ILs or AMB = 100% adhesion) (*, p < 0.05 and **, p < 0.01).
(§4) Post-adherence treatment with ILs was performed in a similar manner to that described previously by our team. Candida spp. suspensions were prepared by centrifuging YPD-grown cultures and resuspending fungal mass in PBS to an OD600 = 0.6. Sterile 96-well plates were inoculated with the prepared suspensions and incubated for 2 h at 37 °C to induce fungal adhesion. Afterwards, adherent cells were washed with PBS to remove planktonic cells and treated with ILs (concentrations equivalent to 1, 2 or 4 × MIC90 for each fungi) for 2 h at 37 °C. Then, each well was washed with PBS and adherent cells were fixed with 0.1% CV solution for 5 min, and washed with PBS. Cells were then treated with a solution of isopropanol 0.04 N HCL with 0.1% SDS to permeabilize adherent cells and release the CV dye. The absorbance of CV was measured at 590 nm (ASYS UVM 340 Biogenet). The percentage of cells that were removed was determined in comparison to adherent cells treated with PBS only (designated 100% adhesion).

[6] = tested on: C. glabrata; assay: as above; details: C. glabrata on polystyrene, 2 h treatment; highest concentration (4 × MIC)
Procedure: as §2, §3, §4

[7] = tested on: C. krusei; assay: as above; details: C. krusei on polystyrene, 2 h treatment; highest concentration (4 × MIC)
Procedure: as §2, §3, §4

[8] = tested on: C. parapsilosis; assay: as above; details: C. parapsilosis on polystyrene, 2 h treatment; highest concentration (4 × MIC)
Procedure: as §2, §3, §4

[9] = tested on: C. albicans; assay: Plasma membrane permeabilization (propidium iodide staining); details: 2 h treatment at MIC90, PI staining, mean ± SD, n = 3
Procedure: (§5) We tested ILs for their activity in permeabilizing fungi plasma membranes (PMs), by treating cells with concentrations of ILs corresponding to their MIC90 values (Table 2).
(§6) The assessment of PM permeability was performed as described previously, with modifications. Briefly, 3 mL of Candida spp. cell suspensions (OD600 = 0.1) in PBS were mixed with ILs (concentrations equivalent to MIC90 against each fungi). Samples were incubated for 2 h at 37 °C, washed with PBS and stained with PI to the final dye concentration of 6 × 10^−6 M for 5 min. Then, cell suspensions were washed with PBS and observed under the Zeiss Axio Imager A2 microscope equipped with the Zeiss Axiocam 503 mono microscope camera and Zeiss HBO100 mercury lamp. The percentage of permeabilized cells was evaluated by counting PI positive cells out of one hundred in three independent repetitions for each experiment.

[10] = tested on: C. glabrata; assay: as above; details: 2 h treatment at MIC90, PI staining, mean ± SD, n = 3
Procedure: as §5, §6

[11] = tested on: C. krusei; assay: as above; details: 2 h treatment at MIC90, PI staining, mean ± SD, n = 3
Procedure: as §5, §6

[12] = tested on: C. parapsilosis; assay: as above; details: 2 h treatment at MIC90, PI staining, mean ± SD, n = 3
Procedure: as §5, §6

[13] = tested on: sheep erythroid PMs; assay: Hemolysis assay; details: AMB conc. 0.25 µM; sheep RBCs; 1% SDS = 100% hemolysis
Procedure: To examine any possible toxic effect towards animal cells, ILs were tested for their lytic activity on sheep erythroid PMs, in comparison to AMB (Table 3). For this part of study, higher concentrations were selected, corresponding to MFC values of tested fungi (12.5; 25 and 50 µM in case of ILs, and 0.25; 0.5 and 1 µM in case of AMB, Table 1). The compounds were ranked in terms of hemolytic activity as follows: 1a > 1b > 2a. IL with alkoxymethyl chain (2a) produced <5% hemolysis, regardless of the concentration used. Compounds with alkyl substituents (1a and 1b) were more hemolytic in 12.5 than in 25 µM concentrations, and in the highest concentration (50 µM), both compounds produced >10% and >5% hemolysis, respectively.
ILs were tested for hemolytic activity, as described previously. Briefly, 5 mL of fresh sheep blood was centrifuged (2000 rpm, 15 min), washed with PBS and resuspended in PBS to achieve hematocrit level of 50%. Red blood cells (RBCs) were treated with ILs (concentrations = 12.5, 25 and 50 µM) for 2 h at 37 °C. Afterwards, RBCs were centrifuged (2000 rpm, 5 min) and the absorbance of the supernatant was measured at 540 nm (ASYS UVM 340 Biogenet). The percentage of hemolysis was determined in comparison to the hemoglobin absorbance released by a 1% SDS solution (100% hemolysis).

[14] = 120 h, replated on YPD agar, 5 days, read-out: Minimal fungicidal concentration (MFC)
[15] = ≥90% growth inhibition, 48 h, YPD, read-out: Minimal inhibitory concentration (MIC90)

Compound `C[C@@H]1[C@H](O)[C@@H](C)/C=C/C=C/C=C/C=C/C=C/C=C/C=C/[C@H](O[C@@H]2O[C@H](C)[C@@H](O)[C@H](N)[C@@H]2O)C[C@@H]2O[C@](O)(C[C@@H](O)C[C@@H](O)[C@H](O)CC[C@@H](O)C[C@@H](O)CC(=O)O[C@H]1C)C[C@H](O)[C@H]2C(=O)O` [AMB, amphotericin B, reference compound] has an MFC [1, 14] of 0.5 µM (≈ 0.462 µg/mL), an MIC90 [1, 15] of 0.25 µM (≈ 0.231 µg/mL) and an MFC [2, 14] of 0.5 µM (≈ 0.462 µg/mL). It also gave an MIC90 [2, 15] of 0.25 µM (≈ 0.231 µg/mL), an MFC [3, 14] of 1 µM (≈ 0.924 µg/mL) and an MIC90 [3, 15] of 0.5 µM (≈ 0.462 µg/mL). For the same compound, the MFC [4, 14] was 0.5 µM (≈ 0.462 µg/mL), the MIC90 [4, 15] was 0.25 µM (≈ 0.231 µg/mL) and the Reduction of adhesion [5] was ~ 27%. The Reduction of adhesion [6] was ~ 15%, the Reduction of adhesion [7] was ~ 20% and the Reduction of adhesion [8] was ~ 20%. For the same compound, the “Percentage of cells with permeabilized PMs” value (shortened to “Percentage of cells”) [9] was 37.3 ± 4.17 %, the “Percentage of cells” value [10] was 43.2 ± 2.15 % and the “Percentage of cells” value [11] was 38.2 ± 10.7 %. The “Percentage of cells” value [12] was 32.38 ± 3.15 % and the Hemolytic activity [13] was 86.7 ± 0.43 %.
